{"source": "patent US11440932B2", "about": "“Surfactant compounds-clips for extraction and stabilization in solution of membrane proteins” (CENTRE NATIONAL DE LA RECHERCHE SCIENTIFIQUE, priority 2017, dated 2022)"}
{"molecular_target": "T1, BmrA (Bacillus subtilis, UniProt O06967)", "T1 construct": "His tag; made in house; host or cells: E. coli C41(DE3)", "T1 sequence (O06967 whole entry)": "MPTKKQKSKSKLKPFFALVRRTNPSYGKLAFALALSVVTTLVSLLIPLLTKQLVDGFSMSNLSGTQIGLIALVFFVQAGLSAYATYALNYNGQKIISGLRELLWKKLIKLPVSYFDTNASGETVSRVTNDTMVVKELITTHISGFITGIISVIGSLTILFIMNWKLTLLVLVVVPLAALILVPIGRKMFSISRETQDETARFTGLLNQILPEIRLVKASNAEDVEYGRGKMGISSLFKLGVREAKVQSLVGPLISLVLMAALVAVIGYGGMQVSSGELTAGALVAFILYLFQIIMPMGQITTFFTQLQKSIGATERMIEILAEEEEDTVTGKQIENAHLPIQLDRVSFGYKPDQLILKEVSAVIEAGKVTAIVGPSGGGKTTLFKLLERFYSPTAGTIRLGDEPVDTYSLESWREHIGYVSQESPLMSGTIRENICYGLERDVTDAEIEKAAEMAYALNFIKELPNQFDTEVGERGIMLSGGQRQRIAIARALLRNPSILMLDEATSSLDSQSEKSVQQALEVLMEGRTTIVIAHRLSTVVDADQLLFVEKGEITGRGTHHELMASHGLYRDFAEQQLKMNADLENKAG", "test": "Extraction of BmrA from membranes (SDS-PAGE of supernatant)", "design": "species or system bacterial; overexpressed in E. coli C41DE3", "settings": "detergent 10 g/l unless indicated otherwise; 2 h at 4° C.", "procedure,_shortened": "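E. coli C41(DE3) membranes overexpressing BmrA (~25% of protein) or AcrB (~20%), at 2 g/l protein in 20 mM Tris-HCl pH 8.0, 100 mM NaCl, 15% glycerol with protease inhibitors, treated with detergent at 10 g/l unless stated otherwise for 2 h at 4° C. After 100 000×g centrifugation, 20 μg supernatant protein run on 10% SDS-PAGE, Coomassie-stained.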"}
{"smiles": "CCCCCCCCCCCCCC(=O)N[C@@H](COCc1cn(CCO[C@@H]2OC(CO)[C@@H](O)C(O)C2O)nn1)C(=O)N[C@H](CCC(=O)O)C(=O)O", "note": "(stereo partly drawn) [Compound 3.7c]", "extraction of BmrA": "extracting"}
{"smiles": "CCCCCCCCCCCCCC(=O)N[C@@H](COCc1cn(CCOCCOCCOCCOCCOCCOC)nn1)C(=O)N[C@H](CCC(=O)O)C(=O)O", "note": "[Compound 3.7g]", "extraction of BmrA": "extracting"}
{"smiles": "CCCCCCCCCCCCCC(=O)N[C@@H](COCc1cn(CCO[C@@H]2OC(CO)[C@@H](O[C@H]3OC(CO)[C@@H](O)C(O)C3O)C(O)C2O)nn1)C(=O)N[C@H](CCC(=O)O)C(=O)O", "note": "(stereo partly drawn) [Compound 3.7e]", "extraction of BmrA": "non-extracting"}
{"smiles": "CCCCCCCCCCCCCC(=O)N[C@@H](COCc1cn(CCO[C@@H]2OC(CO)[C@@H](O)C(O)C2O)nn1)C(=O)N[C@@H](CCC(=O)O)C(=O)NCC(=O)O", "note": "(stereo partly drawn) [Compound 3.7l]", "extraction of BmrA": "extracting"}
{"smiles": "CCCCCCCCCCCC(=O)N[C@@H](COCc1cn(CCO[C@@H]2OC(CO)[C@@H](O)C(O)C2O)nn1)C(=O)N[C@H](CCC(=O)O)C(=O)O", "note": "(stereo partly drawn) [Compound 3.7b]", "extraction of BmrA": "non-extracting"}
{"smiles": "CCCCCCCCCCCCC(CCCCCCCCCCCC)C(=O)N[C@@H](COCc1cn(CCO[C@@H]2OC(CO)[C@@H](O)C(O)C2O)nn1)C(=O)N[C@H](CCC(=O)O)C(=O)O", "note": "(stereo partly drawn) [Compound 3.7j]", "extraction of BmrA": "partially extracting"}
